System: 648629-189-R-J1-PDC spheroids with HUVEC/MSC, viability
Experiment: Anticancer human tumor 648629-189-R-J1-PDC patient-derived bladder carcinoma cell line growth inhibition [PI3K]
Conditions: for IC50: curve of first compound; for viability, T/C: stronger effect = lower value
Description: Combinatorial screen of targeted agents with the PI3K inhibitors inavolisib, alpelisib, duvelisib, and copanlisib in multi-cell type tumor spheroids
A high-throughput screen of multi-cell type tumor spheroids was designed to identify active combinations of targeted small molecules and PI3K pathway inhibitors. Complex spheroids include a stromal component modeled by human endothelial cells (HUVEC) and fibroblasts modeled by human mesenchymal stem cells (MSCs). The concentration ranges selected for each drug and investigational agent were based upon clinically achievable concentrations if the clinical Cmax of the agent was known.
Compounds. The drugs and investigational agents: inavolisib (NSC800729), alpelisib (NSC765974), duvelisib (NSC772469), copanlisib (NSC816437), ipatasertib (NSC767898), afuresertib (NSC778305), talazoparib (NSC767125), sapanisertib (NSC764658), selumetinib (NSC741078), tovorafenib (DAY101, NSC766906), vemurafenib (NSC761431), ravoxertinib (NSC781343), sotorasib (NSC818433), MRTX1133 (NSC 836407), abemaciclib (NSC 768073), palbociclib (NSC758247), venetoclax (NSC 766270), SY5609 (NSC837396), enzalutamide (NSC755605), and darolutamide (NSC825331), were obtained from the National Cancer Institute (NCI) Developmental Therapeutics Program Chemical Repository. The FDA-approved anticancer drug set is available from the NCI Developmental Therapeutics Program. […] The stock solutions were prepared in dimethyl sulfoxide (DMSO, Sigma-Aldrich, St. Louis, MO, cat. D2650) at 800-fold the tested concentration and stored at -70 degrees C prior to their use. All drugs and investigational agents were tested over a range starting from a high concentration at or near the clinical Cmax and decreasing in half-log increments. If the clinical Cmax for an agent had not been determined, the highest concentration tested was 10 microM.
Cell Culture. All cells were maintained in an incubator at 37 degrees C and 5% CO2 with 95% humidity. The PDC lines were cultured according to standard operating procedures established by the NCI PDMR (https://pdmr.cancer.gov/sops/default.htm). All PDCs were thawed and cultured in Matrigel-coated flasks prepared with a working solution of 1X Ham's F-12 nutrient mix, without supplementation (Invitrogen, Waltham, MA, cat. 11765054), 100 U/mL penicillin-streptomycin (Invitrogen, cat. 15140122), and 2.5% Matrigel (Corning Inc., Corning, NY, cat. 354248) for the first three passages. The 354836-022-R-J1-PDC, 475296-252-R-J1-PDC, and 997726-040-R-J2-PDC lines were cultured in 6A media, which includes advanced DMEM/F-12 (Thermo Fisher Scientific, cat. 12634028), 10 mM HEPES (Thermo Fisher Scientific, cat. 15630080), 1X GlutaMAX supplement (Thermo Fisher Scientific, cat. 35050061), 0.1 mg/mL primocin (InvivoGen, San Diego, CA, cat. ant-pm-2), 10% defined fetal bovine serum, heat inactivated (HyClone Laboratories Inc., Logan, UT, cat. SH30070.03HI), 50% L-WRN conditioned media (ATCC, cat. CRL-3276), 1.25 mM N-Acetyl-L-cysteine (Sigma-Aldrich, cat. A9165), 10 mM nicotinamide (Sigma-Aldrich, cat. N0636), 1X B-27 supplement (Thermo Fisher Scientific, cat. 17504044), 1X N-2 supplement (Thermo Fisher Scientific, cat. 17502048), and 10 microM Y-27632 dihydrochloride (Tocris Bioscience, Bristol, United Kingdom, cat. 1254). The 624824-186-R-J2-PDC line was cultured in 6C/Colon 1B media, which includes all 6A media components plus 50 ng/mL human EGF recombinant protein (Thermo Fisher Scientific, cat. PHG0311). […]

[1] = second compound 0.0316 µM, first compound 0.0316 µM
[2] = second compound 0.0316 µM, first compound 0.1 µM
[3] = second compound 0.1 µM, first compound 0.0316 µM
[4] = second compound 0.1 µM, first compound 0.1 µM
[5] = second compound 0.316 µM, first compound 0.0316 µM
[6] = second compound 0.316 µM, first compound 0.1 µM
[7] = second compound 1 µM, first compound 0.0316 µM
[8] = second compound 1 µM, first compound 0.1 µM
[9] = second compound 3.16 µM, first compound 0.0316 µM
[10] = second compound 3.16 µM, first compound 0.1 µM
[11] = second compound 10 µM, first compound 0.0316 µM
[12] = second compound 10 µM, first compound 0.1 µM
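Note: spheroids exposed to agents for seven days before reading.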
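Throughout, for viability, T/C: percent of vehicle control luminescence where 100% = DMSO treated spheroids.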

`CC1(C)CCC(Nc2ncc(C(F)(F)F)c(-c3c[nH]c4c(P(C)(C)=O)c(C#N)ccc34)n2)CN1` (centres undefined) + Cc1nc(NC(=O)N2CCCC2C(N)=O)sc1-c1ccnc(C(C)(C)C(F)(F)F)c1 showed an IC50 (second compound 0.0316 µM) of less than 31.6 nM, an IC50 (second compound 0.1 µM) of less than 31.6 nM and an IC50 (second compound 0.316 µM) of less than 31.6 nM. For the same molecule, the IC50 (second compound 1 µM) was less than 31.6 nM, the IC50 (second compound 3.16 µM) was less than 31.6 nM and the IC50 (second compound 10 µM) was less than 31.6 nM. It also gave a viability, T/C [1] of 29.4%, a viability, T/C [2] of 27.6% and a viability, T/C (second compound 0.0316 µM, first compound 0.316 µM) of 25.6%. For the same molecule, the viability, T/C (second compound 0.0316 µM, first compound 1 µM) was 33.7%, the viability, T/C (second compound 0.0316 µM, first compound 3.16 µM) was 40.7% and the viability, T/C (second compound 0.0316 µM, first compound 10 µM) was 5.12%. For the same molecule, the viability, T/C [3] was 24.7%, the viability, T/C [4] was 27.4% and the viability, T/C (second compound 0.1 µM, first compound 0.316 µM) was 29.3%. The viability, T/C (second compound 0.1 µM, first compound 1 µM) was 38.2%, the viability, T/C (second compound 0.1 µM, first compound 3.16 µM) was 40.9% and the viability, T/C (second compound 0.1 µM, first compound 10 µM) was 4.14%. For the same molecule, the viability, T/C [5] was 27.6%, the viability, T/C [6] was 24.7% and the viability, T/C (second compound 0.316 µM, first compound 0.316 µM) was 30.5%. It also gave a viability, T/C (second compound 0.316 µM, first compound 1 µM) of 27.9%, a viability, T/C (second compound 0.316 µM, first compound 3.16 µM) of 36.4% and a viability, T/C (second compound 0.316 µM, first compound 10 µM) of 4.18%. It also gave a viability, T/C [7] of 26.8%, a viability, T/C [8] of 23.9% and a viability, T/C (second compound 1 µM, first compound 0.316 µM) of 26%. For the same molecule, the viability, T/C (second compound 1 µM, first compound 1 µM) was 27.4%, the viability, T/C (second compound 1 µM, first compound 3.16 µM) was 27.4% and the viability, T/C (second compound 1 µM, first compound 10 µM) was 2.87%. The viability, T/C [9] was 26%, the viability, T/C [10] was 23.1% and the viability, T/C (second compound 3.16 µM, first compound 0.316 µM) was 21%. It also gave a viability, T/C (second compound 3.16 µM, first compound 1 µM) of 22.2%, a viability, T/C (second compound 3.16 µM, first compound 3.16 µM) of 24.7% and a viability, T/C (second compound 3.16 µM, first compound 10 µM) of 1.62%. For the same molecule, the viability, T/C [11] was 21.5%, the viability, T/C [12] was 17.1% and the viability, T/C (second compound 10 µM, first compound 0.316 µM) was 18.1%. It also gave a viability, T/C (second compound 10 µM, first compound 1 µM) of 16.6%, a viability, T/C (second compound 10 µM, first compound 3.16 µM) of 15.5% and a viability, T/C (second compound 10 µM, first compound 10 µM) of 0.41%.

`Cn1ncnc1[C@H]1c2n[nH]c(=O)c3cc(F)cc(c23)N[C@@H]1c1ccc(F)cc1` + Cc1nc(NC(=O)N2CCCC2C(N)=O)sc1-c1ccnc(C(C)(C)C(F)(F)F)c1 showed an IC50 (second compound 0.0316 µM) greater than 100 nM, an IC50 (second compound 0.1 µM) greater than 100 nM and an IC50 (second compound 0.316 µM) greater than 100 nM. The IC50 (second compound 1 µM) was 89.4 nM, the IC50 (second compound 3.16 µM) was 15.9 nM and the IC50 (second compound 10 µM) was less than 0.316 nM. It also gave a viability, T/C (second compound 0.0316 µM, first compound 0.000316 µM) of 117%, a viability, T/C (second compound 0.0316 µM, first compound 0.001 µM) of 101% and a viability, T/C (second compound 0.0316 µM, first compound 0.00316 µM) of 91.2%. The viability, T/C (second compound 0.0316 µM, first compound 0.01 µM) was 82.1%, the viability, T/C [1] was 83.4% and the viability, T/C [2] was 64.7%. The viability, T/C (second compound 0.1 µM, first compound 0.000316 µM) was 115%, the viability, T/C (second compound 0.1 µM, first compound 0.001 µM) was 96.9% and the viability, T/C (second compound 0.1 µM, first compound 0.00316 µM) was 93.5%. It also gave a viability, T/C (second compound 0.1 µM, first compound 0.01 µM) of 77.8%, a viability, T/C [3] of 80.4% and a viability, T/C [4] of 58.6%. The viability, T/C (second compound 0.316 µM, first compound 0.000316 µM) was 85.8%, the viability, T/C (second compound 0.316 µM, first compound 0.001 µM) was 94.5% and the viability, T/C (second compound 0.316 µM, first compound 0.00316 µM) was 90.8%. The viability, T/C (second compound 0.316 µM, first compound 0.01 µM) was 78.3%, the viability, T/C [5] was 68.2% and the viability, T/C [6] was 52.7%. The viability, T/C (second compound 1 µM, first compound 0.000316 µM) was 73.8%, the viability, T/C (second compound 1 µM, first compound 0.001 µM) was 74.8% and the viability, T/C (second compound 1 µM, first compound 0.00316 µM) was 70.6%. For the same molecule, the viability, T/C (second compound 1 µM, first compound 0.01 µM) was 74.9%, the viability, T/C [7] was 60.8% and the viability, T/C [8] was 48.8%. For the same molecule, the viability, T/C (second compound 3.16 µM, first compound 0.000316 µM) was 64.4%, the viability, T/C (second compound 3.16 µM, first compound 0.001 µM) was 57.6% and the viability, T/C (second compound 3.16 µM, first compound 0.00316 µM) was 58.4%. For the same molecule, the viability, T/C (second compound 3.16 µM, first compound 0.01 µM) was 48.7%, the viability, T/C [9] was 49.7% and the viability, T/C [10] was 43.5%. For the same molecule, the viability, T/C (second compound 10 µM, first compound 0.000316 µM) was 40.6%, the viability, T/C (second compound 10 µM, first compound 0.001 µM) was 36.1% and the viability, T/C (second compound 10 µM, first compound 0.00316 µM) was 39.7%. It also gave a viability, T/C (second compound 10 µM, first compound 0.01 µM) of 35%, a viability, T/C [11] of 29.7% and a viability, T/C [12] of 28.5%.

Reference: PubChem BioAssay AID1963974 (Molecular Pharmacology Branch, DTP, NCI, 2024)
